Counter-ions that a name gives are not always drawn.
Tested on: Acinetobacter baumannii ATCC17961
Test: Antimicrobial susceptibility testing: 90% growth inhibitory concentration (IC90) determination, Iso-Sensitest broth
Type: cell-based
Conditions: Acinetobacter baumannii, ATCC17961, 90% growth inhibitory concentration, Acinetobacter baumannii ATCC17961, Iso-Sensitest broth; read-out: ATCC 17961 IC90
Method: The in vitro antimicrobial activity of the compounds was determined according to the following procedure:
The assay used a 10-points Iso-Sensitest broth medium to measure quantitatively the in vitro activity of the compounds against Acinetobacter baumannii ATCC17978 or ATCC17961.
Stock compounds in DMSO were serially twofold diluted (e.g. range from 10 to 0.02 μM final concentration) in 384 wells microtiter plates and inoculated with 49 μl the bacterial suspension in Iso-Sensitest medium to have a final cell concentration of ˜5×10^(5) CFU/ml in a final volume/well of 50 ul/well. Microtiter plates were incubated at 35±2° C.
Bacterial cell growth was determined with the measurement of optical density at k=600 nm each 20 minutes over a time course of 16 h. Growth inhibition was calculated during the logarithmic growth of the bacterial cells with determination of the concentration inhibiting 50% (IC50) and 90% (IC90) of the growth.
Table 1 provides the 90% growth inhibitory concentrations (IC90) in micromoles per liter of the compounds of present invention obtained against the strain Acinetobacter baumannii ATCC17978 or ATCC17961.

In order of falling IC90:
1. CN(C)CCN1CCN(C(=O)c2ccc(NC(=O)c3ncc(-c4ccc(Oc5ccccn5)c(F)c4F)n3C)cc2Cl)CC1 [Example 271, N-[3-chloro-4-[4-[2-(dimethylamino)ethyl]piperazine-1-carbonyl]phenyl]-5-[2,3-difluoro-4-(2-pyridyloxy)phenyl]-1-methyl-imidazole-2-carboxamide trifluoroacetate]  640 nM
2. COc1ccc(-c2cnc(C(=O)Nc3ccc(C(=O)N4CCN(C(=O)CCCC[C@@H]5SC[C@@H]6NC(=O)N[C@@H]65)CC4)c(Cl)c3)n2C)c(F)c1F [Example 130, N-[4-[4-[5-[(3aS,4S,6aR)-2-oxo-1,3,3a,4,6,6a-hexahydrothieno[3,4-d]imidazol-4-yl]pentanoyl]piperazine-1-carbonyl]-3-chloro-phenyl]-5-(2,3-difluoro-4-methoxy-phenyl)-1-methyl-imidazole-2-carboxamide]  260 nM
3. COc1ccc(-c2cnc(C(=O)Nc3ccc(C(=O)N4CCN(C(=O)CCOCCC(N)=O)CC4)c(Cl)c3)n2C)c(F)c1F [Example 279, N-(4-(4-(3-(3-Amino-3-oxopropoxy)propanoyl)piperazine-1-carbonyl)-3-chlorophenyl)-5-(2,3-difluoro-4-methoxyphenyl)-1-methyl-1H-imidazole-2-carboxamide]  150 nM
4. Cc1cc(NC(=O)c2ncc(-c3ccc(OCC#N)c(F)c3F)n2C)ccc1C(=O)N1CCC(C(=O)N2CCO[C@@H](CN)C2)CC1 [Example 87, (S)-N-(4-(4-(2-(aminomethyl)morpholine-4-carbonyl)piperidine-1-carbonyl)-3-methylphenyl)-5-(4-(cyanomethoxy)-2,3-difluorophenyl)-1-methyl-1H-imidazole-2-carboxamide 2,2,2-trifluoroacetate]  120 nM
5. COc1ccc(-c2cnc(C(=O)Nc3ccc(C(=O)N4CCN(C(=O)[C@@H]5C[C@](C)(O)CN5)CC4)c(Cl)c3)n2C)c(F)c1F [Example 232, N-[3-chloro-4-[4-[(2S,4S)-4-hydroxy-4-methyl-pyrrolidine-2-carbonyl]piperazine-1-carbonyl]phenyl]-5-(2,3-difluoro-4-methoxy-phenyl)-1-methyl-imidazole-2-carboxamide formate]  90 nM
6. COc1ccc(-c2cnc(C(=O)Nc3ccc(C(=O)N4CCN(C(=O)C56CC(N)(C5)C6)CC4)c(Cl)c3)n2C)c(F)c1F [Example 132, N-[4-[4-(3-aminobicyclo[1.1.1]pentane-1-carbonyl)piperazine-1-carbonyl]-3-chloro-phenyl]-5-(2,3-difluoro-4-methoxy-phenyl)-1-methyl-imidazole-2-carboxamide formate]  70 nM
7. COc1ccc(-c2cnc(C(=O)Nc3ccc(C(=O)N4CCN(C(=O)C5CCNCC5)CC4)c(Cl)c3)n2C)c(F)c1F [Example 265, N-[3-chloro-4-[4-(piperidine-4-carbonyl)piperazine-1-carbonyl]phenyl]-5-(2,3-difluoro-4-methoxy-phenyl)-1-methyl-imidazole-2-carboxamide hydrochloride]  70 nM
8. COc1ccc(-c2cnc(C(=O)Nc3ccc(C(=O)N4CCC(NC(=O)CCN)CC4)c(Cl)c3)n2C)c(F)c1F [Example 103, N-[4-[4-(3-aminopropanoylamino)piperidine-1-carbonyl]-3-chloro-phenyl]-5-(2,3-difluoro-4-methoxy-phenyl)-1-methyl-imidazole-2-carboxamide formate]  60 nM
9. COc1ccc(-c2cnc(C(=O)Nc3ccc(C(=O)N4CCN(C(=O)C[C@H]5CCNC5)CC4)c(Cl)c3)n2C)c(F)c1F [Example 153, N-[3-chloro-4-[4-[2-[(3R)-pyrrolidin-3-yl]acetyl]piperazine-1-carbonyl]phenyl]-5-(2,3-difluoro-4-methoxy-phenyl)-1-methyl-imidazole-2-carboxamide formate]  60 nM
10. Cn1c(-c2ccc(OCF)c(F)c2Cl)cnc1C(=O)Nc1ccc(C(=O)N2CCC(C(=O)N[C@H]3CCNC3)CC2)c(Cl)c1 [Example 65, 1-[2-chloro-4-[[5-[2-chloro-3-fluoro-4-(fluoromethoxy)phenyl]-1-methyl-imidazole-2-carbonyl]amino]benzoyl]-N-[(3S)-pyrrolidin-3-yl]piperidine-4-carboxamide formate]  50 nM
11. Cn1c(-c2ccc(OC(F)F)c(F)c2Cl)cnc1C(=O)Nc1ccc(C(=O)N2CCN(C(=O)CC3(O)CCNCC3)CC2)c(Cl)c1 [Example 172, 5-[2-chloro-4-(difluoromethoxy)-3-fluoro-phenyl]-N-[3-chloro-4-[4-[2-(4-hydroxy-4-piperidyl)acetyl]piperazine-1-carbonyl]phenyl]-1-methyl-imidazole-2-carboxamide formate]  50 nM
12. COc1ccc(-c2cnc(C(=O)Nc3ccc(C(=O)N4CCC(NS(=O)(=O)C5CCNC5)CC4)c(Cl)c3)n2C)c(F)c1F (stereo not drawn) [Example 237, N-[3-chloro-4-[4-(pyrrolidin-3-ylsulfonylamino)piper-idine-1-carbonyl]phenyl]-5-(2,3-difluoro-4-methoxy-phenyl)-1-methyl-imidazole-2-carboxamide]  50 nM
13. CN(C)CC(=O)N1CCN(C(=O)c2ccc(NC(=O)c3ncc(-c4ccc(OC(F)F)cc4F)n3C)cc2Cl)CC1 [Example 175, N-[3-chloro-4-[4-[2-(dimethylamino)acetyl]piperazine-1-carbonyl]phenyl]-5-[4-(difluoromethoxy)-2-fluoro-phenyl]-1-methyl-imidazole-2-carboxamide formate]  50 nM
14. COc1ccc(-c2cnc(C(=O)Nc3ccc(C(=O)N4CCN(C(=O)CC5CCNCC5)CC4)c(Cl)c3)n2C)c(F)c1F [Example 142, N-[3-chloro-4-[4-[2-(4-piperidyl)acetyl]piperazine-1-carbonyl]phenyl]-5-(2,3-difluoro-4-methoxy-phenyl)-1-methyl-imidazole-2-carboxamide; formic acid]  40 nM
15. COc1ccc(-c2cnc(C(=O)Nc3ccc(C(=O)N4CCN(C(=O)CC5CCNC5)CC4)c(Cl)c3)n2C)c(F)c1F (stereo not drawn) [Example 151, N-[3-chloro-4-[4-(2-pyrrolidin-3-ylacetyl)piperazine-1-carbonyl]phenyl]-5-(2,3-difluoro-4-methoxy-phenyl)-1-methyl-imidazole-2-carboxamide formate]  40 nM
16. COc1ccc(-c2cnc(C(=O)Nc3ccc(C(=O)N4CCN(C(=O)CC5CNC(=O)C5)CC4)c(Cl)c3)n2C)c(F)c1F (stereo not drawn) [Example 129, N-[3-chloro-4-[4-[2-(5-oxopyrrolidin-3-yl)acetyl]piperazine-1-carbonyl]phenyl]-5-(2,3-difluoro-4-methoxy-phenyl)-1-methyl-imidazole-2-carboxamide]  40 nM
17. COc1ccc(-c2cnc(C(=O)Nc3ccc(C(=O)N4CCN(C(=O)CCN)CC4)c(Cl)c3)n2C)c(F)c1F [Example 123, N-[4-[4-(3-aminopropanoyl)piperazine-1-carbonyl]-3-chloro-phenyl]-5-(2,3-difluoro-4-methoxy-phenyl)-1-methyl-imidazole-2-carboxamide formate]  40 nM
18. COc1ccc(-c2cnc(C(=O)Nc3ccc(C(=O)N4CCN(C(=O)CC5(O)CCNCC5)CC4)c(Cl)c3)n2C)c(F)c1F [Example 161, N-[3-chloro-4-[4-[2-(4-hydroxy-4-piperidyl)acetyl]piperazine-1-carbonyl]phenyl]-5-(2,3-difluoro-4-methoxy-phenyl)-1-methyl-imidazole-2-carboxamide formate]  30 nM

Reference: patent publication US20220396565A1 (Hoffmann-La Roche Inc., priority 2020, published 2022)
